Experiment: recombinant barcode read abundance after kanamycin selection (control-corrected) (log10(CPM+1)); higher = more efficient recombination; sequences stand for … in AGTGCAGAGAAAATCGGCCAGTTTTCTCTGCCTGCAGTCCGCATGCCGT…AGATTTATGCAGCGGACTGCCTTTCTCCCAAAGTGATAAACCGGACAGTATCATGGACCGGTTTTCCCGGTAATCCGTATTTGCAAGGTTGGTTTCACT; site = the 11-nt target
Procedure, shortened: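 Each value is log10(CPM+1). It describes recombination efficiency, taken as averaged, control-corrected counts per million of barcodes at recombinant junctions. The pooled E. coli library paired targets with IS621 bridge RNA target-binding loops, was co-electroporated with a donor plasmid, and was plated twice on chloramphenicol/ampicillin LB agar (control) and twice on chloramphenicol/ampicillin/kanamycin containing 0.1 mM IPTG.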
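Note: IS621 recombinase and bridge RNA in Escherichia coli cells.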

Sequence	recombinant barcode read abundance (log10)
TCCCGATCTTGGGTTCTAACCTGTTGCCT (site TCCCGAACTAG)	0.0997
TCCCGATCTTGGGTTCTAACCTGTTGCCT (site TCCCGACCTAG)	0.521
TCCCGATCTTGGGTTCTAACCTGTTGCCT (site TCCCGAGCTAG)	0.065
TCCCGATCTTGGGTTCTAACCTGTTGCCT (site TCCCGATCTAG)	0.502
TCCCTTCCTTGGGTTCTAACCTGTTGCCT (site TCCCGTCCTAG)	0.0443
TCCCTTCCTTGGGTTCTAACCTGTTGCCT (site TCCCTTCCTAG)	0.365
TCCGAAGCTTGGGTTCTAACCTGTTGCCT (site GACGAAGCTAG)	0.444
TCCGAAGCTTGGGTTCTAACCTGTTGCCT (site TCCGAAGCTAG)	0.487
TCCGACTCTTGGGTTCTAACCTGTTGCCG (site TCCGACTCTCG)	1.55
TCCGACTCTTGGGTTCTAACCTGTTGCCG (site TCCTACTCTCG)	0.122
TCCGAGACTTGGGTTCTAACCTGTTGCCA (site TCCGAGACTAG)	0.598
TCCGAGACTTGGGTTCTAACCTGTTGCCA (site TCCGAGACTCG)	0.208
TCCGAGACTTGGGTTCTAACCTGTTGCCA (site TCCGAGACTGG)	0.176
TCCGAGACTTGGGTTCTAACCTGTTGCCA (site TCCGAGACTTG)	1.34
TCCGAGACTTGGGTTCTAACCTGTTGCCC (site TCCGAGACTAG)	0.146
TCCGAGACTTGGGTTCTAACCTGTTGCCC (site TCCGAGACTCG)	0.338
TCCGAGACTTGGGTTCTAACCTGTTGCCC (site TCCGAGACTGG)	1.08
TCCGAGACTTGGGTTCTAACCTGTTGCCC (site TCCGAGACTTG)	0.0317
TCCGCGACTTGGGTTCTAACCTGTTGCCT (site TCAGCGACTAG)	0.0444
TCCGCGACTTGGGTTCTAACCTGTTGCCT (site TCCGCGACTAG)	0.159
TCCGCGACTTGGGTTCTAACCTGTTGCCT (site TCGGCGACTAG)	0.453
TCCGCGACTTGGGTTCTAACCTGTTGCCT (site TCTGCGACTAG)	0.17

Sequence	recombinant barcode read abundance (log10)
TCCGCTGCTTGGGTTCTAACCTGTTGCCT (site TCCGCTACTAG)	0.151
TCCGCTGCTTGGGTTCTAACCTGTTGCCT (site TCCGCTCCTAG)	0.0574
TCCGCTGCTTGGGTTCTAACCTGTTGCCT (site TCCGCTGCTAG)	0.283
TCCGCTGCTTGGGTTCTAACCTGTTGCCT (site TCCGCTTCTAG)	0.00679
TCCGGTACTTGGGTTCTAACCTGTTGCAT (site TCCAGTACTAT)	0.369
TCCGGTACTTGGGTTCTAACCTGTTGCAT (site TCCCGTACTAT)	0.0823
TCCGGTACTTGGGTTCTAACCTGTTGCAT (site TCCGGTACTAT)	0.849
TCCGGTACTTGGGTTCTAACCTGTTGCAT (site TCCTGTACTAT)	0.114
TCCGTCCCTTGGGTTCTAACCTGTTGCTG (site TCCGTACCTCG)	0.0427
TCCGTCCCTTGGGTTCTAACCTGTTGCTG (site TCCGTCCCTCA)	1.57
TCCGTGCCTTGGGTTCTAACCTGTTGCCT (site TCCGTGACTAG)	0.00917
TCCGTGCCTTGGGTTCTAACCTGTTGCCT (site TCCGTGCCTAG)	0.598
TCCGTGCCTTGGGTTCTAACCTGTTGCCT (site TCCGTGGCTAG)	0.304
TCCGTGCCTTGGGTTCTAACCTGTTGCCT (site TCCGTGTCTAG)	0.17
TCCGTTACTTGGGTTCTAACCTGTTGCCG (site CAGCAGCCTAA)	0.086
TCCGTTACTTGGGTTCTAACCTGTTGCCG (site TCCGTTACTCG)	0.336
TCCTCTCCTTGGGTTCTAACCTGTTGCTT (site TCCTCTCCTAA)	0.118
TCCTCTCCTTGGGTTCTAACCTGTTGCTT (site TGCCCTCCTAA)	0.0451
TCCTGGCCTTGGGTTCTAACCTGTTGCCT (site TCCAGGGCTAG)	0.209
TCCTGGCCTTGGGTTCTAACCTGTTGCCT (site TCCTGGCCTAG)	0.117
TCCTGTCCTTGGGTTCTAACCTGTTGCAT (site TCCTGTACTAG)	0.0187
TCCTGTCCTTGGGTTCTAACCTGTTGCAT (site TCCTGTCCTAT)	0.467

Sequence	recombinant barcode read abundance (log10)
TCCTGTGCTTGGGTTCTAACCTGTTGCCT (site TCCTGTGCTAG)	0.254
TCCTGTGCTTGGGTTCTAACCTGTTGCCT (site TTCTATGCTAG)	0.00897
TCCTTCTCTTGGGTTCTAACCTGTTGCCT (site GAGGGGACTCT)	0.103
TCCTTCTCTTGGGTTCTAACCTGTTGCCT (site TCCTTCTCTAG)	0.601
TCGAACCCTTGGGTTCTAACCTGTTGCCT (site TCGAAACCTAG)	0.36
TCGAACCCTTGGGTTCTAACCTGTTGCCT (site TCGAACCCTAG)	0.639
TCGAACCCTTGGGTTCTAACCTGTTGCCT (site TCGAAGCCTAG)	0.115
TCGAACCCTTGGGTTCTAACCTGTTGCCT (site TCGAATCCTAG)	0.151
TCGAACGCTTGGGTTCTAACCTGTTGCTT (site CACGGGACTCT)	0.115
TCGAACGCTTGGGTTCTAACCTGTTGCTT (site TCGAACGCTAA)	0.135
TCGACCACTTGGGTTCTAACCTGTTGCCT (site TATACCACTAG)	0.0386
TCGACCACTTGGGTTCTAACCTGTTGCCT (site TCGACCACTAG)	0.115
TCGAGGCCTTGGGTTCTAACCTGTTGCGG (site TAGAGCCCTCC)	0.724
TCGAGGCCTTGGGTTCTAACCTGTTGCGG (site TCGAGGCCTCC)	1.34
TCGAGTCCTTGGGTTCTAACCTGTTGCCA (site TCGAGTCCTTG)	0.084
TCGAGTCCTTGGGTTCTAACCTGTTGCCA (site TGGTGTCCTTG)	0
TCGATCACTTGGGTTCTAACCTGTTGCCT (site TCGATCACTAG)	0.738
TCGATCACTTGGGTTCTAACCTGTTGCCT (site TCGATTACTAG)	0.0188
TCGATCCCTTGGGTTCTAACCTGTTGCGT (site CTTTGAACTTA)	0.315
TCGATCCCTTGGGTTCTAACCTGTTGCGT (site TCGATCCCTAC)	1.95
TCGCACACTTGGGTTCTAACCTGTTGCTG (site TAGCACACTCG)	0.0637
TCGCACACTTGGGTTCTAACCTGTTGCTG (site TCGCACACTCA)	0.548

Sequence	recombinant barcode read abundance (log10)
TCGCGGACTTGGGTTCTAACCTGTTGCCT (site TCACGGACTAG)	0.464
TCGCGGACTTGGGTTCTAACCTGTTGCCT (site TCCCGGACTAG)	0.243
TCGCGGACTTGGGTTCTAACCTGTTGCCT (site TCGCGGACTAG)	0.168
TCGCGGACTTGGGTTCTAACCTGTTGCCT (site TCTCGGACTAG)	0.0887
TCGGAGTCTTGGGTTCTAACCTGTTGCAT (site TCGGAGTCTAA)	0.5
TCGGAGTCTTGGGTTCTAACCTGTTGCAT (site TCGGAGTCTAC)	1.03
TCGGAGTCTTGGGTTCTAACCTGTTGCAT (site TCGGAGTCTAG)	1.4
TCGGAGTCTTGGGTTCTAACCTGTTGCAT (site TCGGAGTCTAT)	2.29
TCGGAGTCTTGGGTTCTAACCTGTTGCGC (site CTATGACCTCA)	0.0526
TCGGAGTCTTGGGTTCTAACCTGTTGCGC (site TCGGAGTCTGC)	1.37
TCGGAGTCTTGGGTTCTAACCTGTTGCTG (site TCGGAGTCTCA)	0.963
TCGGAGTCTTGGGTTCTAACCTGTTGCTG (site TCGGAGTCTCG)	0.446
TCGGATACTTGGGTTCTAACCTGTTGCTT (site TCGGATACTAA)	0.659
TCGGATACTTGGGTTCTAACCTGTTGCTT (site TCGGATACTAC)	0.249
TCGGATACTTGGGTTCTAACCTGTTGCTT (site TCGGATACTAG)	0.759
TCGGATACTTGGGTTCTAACCTGTTGCTT (site TCGGATACTAT)	0.323
TCGTCACCTTGGGTTCTAACCTGTTGCAT (site CTAGTGGCTCG)	0
TCGTCACCTTGGGTTCTAACCTGTTGCAT (site TCGTCACCTAT)	0.0694
TCGTCATCTTGGGTTCTAACCTGTTGCCT (site TCGTCATCTAG)	0.21
TCGTCATCTTGGGTTCTAACCTGTTGCCT (site TCGTCCTCTAG)	0.276

From the supplement of paper PMC11208160
